pIC50: −log10 of the molar value. Several values for one entry are separate records, joined by “and”; a condition that tells them apart may be missing. Equal values may be shown once. Read-outs that look alike come from different tables or passages of the source.
Key:
[1] = target: clade 2.1 HPAI H5N1 isolates from Indonesia (neuraminidase) (Influenza A virus, UniProt F5HQR3); type: biochemical, HPAI H5N1 avian influenza virus
[2] = target: A/chicken/Cambodia/CMB07.71LC2/2007 neuraminidase (Influenza A virus, UniProt E1B5P8); type: biochemical, HPAI H5N1 avian influenza virus
[3] = target: A/chicken/Saraburi/10713/2005 neuraminidase (Influenza A virus (A/chicken/Saraburi/10713/2005(H5N1)), UniProt Q2LDC8); type: biochemical, HPAI H5N1 avian influenza virus
[4] = system: clade 2.1 viruses circulating in Indonesia (neuraminidase); settings: cited from earlier work
[5] = target: A/chicken/Wates/126/2005 neuraminidase (clade 2.1 reference) (Influenza A virus (H5N1), UniProt Q1W1F4); type: biochemical, HPAI H5N1 avian influenza virus; settings: read-out: IC50, Mean (SD)
[6] = target: A/chicken/Cambodia/CMB07.71LC1/2007 neuraminidase (Influenza A virus, UniProt E1B5P8); type: biochemical, HPAI H5N1 avian influenza virus
[7] = target: clade 1.1 HPAI H5N1 isolates from Thailand (neuraminidase) (Influenza A virus, UniProt Q5SDA6); type: biochemical, HPAI H5N1 avian influenza virus; settings: read-out: IC50, Mean (SD)
[8] = target: A/chicken/Cambodia/CMB07.71LC4/2007 neuraminidase (Influenza A virus (A/chicken/Cambodia/CMB07.71LC4/2007(H5N1)), UniProt E1B5P8); type: biochemical, HPAI H5N1 avian influenza virus
[9] = system: A/chicken/Bangli/BBVD-562/2007, A/chicken/West Java Tangerang/PTB6/2008, A/chicken/West Java/Tja-31/2008, A/chicken/Payakumbuh/BPPVRII-307/2007 neuraminidases; type: biochemical
[10] = target: clade 1 isolates from Viet Nam and Cambodia (neuraminidase); settings: cited from earlier work
[11] = target: A/chicken/Suphanburi/2509/2004 neuraminidase (Influenza A virus (H5N1), UniProt Q5SDA6); type: biochemical, HPAI H5N1 avian influenza virus
[12] = target: A/duck/Cambodia/CMB07.72/2007 neuraminidase (Influenza A virus, UniProt E1B5P8); type: biochemical, HPAI H5N1 avian influenza virus
[13] = in vivo; cited from earlier work
[14] = target: A/chicken/Bangli/BBVD-563/2007 neuraminidase (clade 2.1 wild type) (Influenza A virus, UniProt F1SW80); type: biochemical, HPAI H5N1 avian influenza virus
[15] = target: A/chicken/Cambodia/CMB07.71LC3/2007 neuraminidase (Influenza A virus (A/chicken/Cambodia/CMB07.71LC3/2007(H5N1)), UniProt E1B5P8); type: biochemical, HPAI H5N1 avian influenza virus
[16] = target: A/chicken/Vietnam/08/2004 neuraminidase (clade 1.1 wild type) (Influenza A virus (H5N1), UniProt Q6DPL2); type: biochemical, HPAI H5N1 avian influenza virus
[17] = read-out: 60 min IC50, Preincubation step (+)
[18] = read-out: 60 min IC50, Preincubation step (−)

CCOC(=O)C1=C[C@@H](OC(CC)CC)[C@H](NC(C)=O)[C@@H](N)C1 [Oseltamivir, oseltamivir]
pIC50 ([1]; read-out: Extreme High Outliers, IC50 cut-off): < 7.20
pIC50 ([1]; read-out: IC50, IQR (25th-75th percentile)): 7.55 to 7.67 and 7.58 to 7.69
pIC50 ([1]; read-out: IC50, Median): 7.60 and 7.61
pIC50 ([1]; read-out: IC50, range): 6.46 to 7.97 and 7.20 to 7.90
pIC50 ([1]; read-out: IC50s of extreme outliers): 6.46 to 7.20
pIC50 ([1]; read-out: IC50s of many of the outliers): < 7.30
pIC50 ([1]; read-out: Mean and median IC50): ~7.60
pIC50 ([1]; read-out: Median IC50): 7.60
pIC50 ([1]; read-out: Mild High Outliers, IC50 cut-off): < 7.37
pIC50 [2]: 9.11
pIC50 [3]: 9.17
pIC50 [4]: 7.96 and 7.94
pIC50 [5]: 7.80 and 7.70
pIC50 [6]: 9.11
pIC50 [7]: 9.01
pIC50 [8]: 9.12
Binding kinetics (in words) [9]: no longer slow binding
pIC50 [10]: 9.30
pIC50 [11]: 9.21
pIC50 [12]: 9.19
Levels in plasma [13]: 400 to 1200 nM
Levels in saliva [13]: less than 5 % of plasma levels
Binding kinetics (in words) [14]: partial loss of slow binding, and faster dissociation
pIC50 [14, 17]: 7.71
pIC50 [14, 18]: 7.67
pIC50 [15]: 9.29

CCC(CC)[C@H](NC(C)=O)[C@@H]1[C@H](O)[C@@H](C(=O)O)C[C@H]1N=C(N)N [Peramivir, peramivir]
Binding kinetics (in words) [9]: None of these viruses demonstrated loss of slow binding
Ratio (−)/(+) of 60 min IC50s [16]: 8.9
pIC50 [16, 17]: 9.15
pIC50 [16, 18]: 8.21
Ratio (−)/(+) of 60 min IC50s [14]: 9
pIC50 [14, 17]: 9.22
pIC50 [14, 18]: 8.27

CC(=O)N[C@H]1[C@H]([C@H](O)[C@H](O)CO)OC(C(=O)O)=C[C@@H]1N=C(N)N [Zanamivir, zanamivir]
Extreme High Outliers, number of viruses [1]: 0 (>7.2) and 0 (>5.6)
Binding kinetics (in words) [9]: None of these viruses demonstrated loss of slow binding
